Values of other authors, collected in patent publication US20060018842A1, “Composition and method for delivery of phytochemicals” (priority 2004, published 2006).
“Also recorded” adds a separate entry of the source.

Tested on: microorganisms named in the source
Conditions: not given

Compound	Activity
COc1cc(CNC(=O)CCCC/C=C/C(C)C)ccc1O [Capesicin]	Bacteria

Same assay, conditions: organisms against which activity was observed; General = general antimicrobial

Compound	Activity
C=CCSSC=CC[S+]([O-])CC=C (mixture of isomers) [ajoene]	General
C=CCS[S+]([O-])CC=C (stereo not drawn) [Allicin]	Bacteria, Candida; also recorded: General
CC1(C)C=Cc2c(cc3occ(-c4ccc(O)cc4)c(=O)c3c2O)O1 [Alpinumisoflavone]	Schiatosome
COc1ccc2cc3[n+](cc2c1OC)CCc1cc2c(cc1-3)OCO2 [Berberine]	Plasmodium; also recorded: Trypansomea, general; also recorded: Bacteria, protozoa; also recorded: Bacteria, Giardia duodenals,; also recorded: trypanosomes; also recorded: Platmodia
Cc1ccc(C(C)C)cc1O [Carvacrol]	General
COc1cc2c(c(OC)c1OC)-c1ccc(OC)c(=O)cc1[C@@H](NC(C)=O)CC2 [Colchicines, reference compound]	General
C=CCc1ccc(O)c(OC)c1 [Eugonol]	General
O=C(CO)[C@@H](O)[C@H](O)[C@H](O)CO [Fructose]	E. coli; also recorded: Bacteria
O=C(O)c1cc(O)c(O)c(O)c1 [Gallic acid]	S. aureus
CC(C)=CCc1cc([C@@H]2CC(=O)c3ccc(O)c(CC=C(C)C)c3O2)ccc1O [Glabrol]	S. aureus, M. tuberculosis
O=C1C=C(O)C(=O)c2ccccc21 [Lawsone]	M. tuberculosis
CC(C)=CCC1=C(O)C(C(=O)CC(C)C)=C(O)C(CC=C(C)C)(CC=C(C)C)C1=O [Lupulone]	General
COc1cc(CCN)cc(OC)c1OC [Mascaline]	General
CC1CCC(C(C)C)C(O)C1 (stereo not drawn) [Menthol, reference compound]	General
CC(Cc1ccc(O)c(O)c1)C(C)Cc1ccc(O)c(O)c1 (stereo not drawn) [Nordihydrogual-aretic acid]	Skin bacteria
CC(C)=CCc1cc(O)c(O)c(CC=C(C)C)c1[C@H]1Oc2c(CC=C(C)C)c(O)cc(O)c2C(=O)[C@@H]1O [Petalostemumol]	Bacteria, fungi
O=C(CCc1ccc(O)cc1)c1c(O)cc(O)cc1O [Phloretin]	General

Compound	Activity
O=C(/C=C/C=C/c1ccc2c(c1)OCO2)N1CCCCC1 [Piperdine]	Fungi, Lactobacillus,; also recorded: Micrococcus, E. coli; also recorded: E. facecalis
C=C1C=CC(=O)O1 [Protoanemonia]	General
C=C[C@H]1CN2CC[C@H]1C[C@H]2[C@H](O)c1ccnc2ccc(OC)cc12 [Quiniae, reference compound]	Plasmodium spp.
COC(=O)[C@H]1[C@H]2C[C@@H]3c4[nH]c5cc(OC)ccc5c4CCN3C[C@H]2C[C@@H](OC(=O)c2cc(OC)c(OC)c(OC)c2)[C@@H]1OC [Roserpine, reference compound]	General
C/C(=C\CC[C@H](C)[C@@H]1CC[C@]2(C)C3=CC[C@H]4C(C)(C)C(=O)CC[C@]4(C)[C@H]3CC[C@@]12C)C(=O)O [Terebinthone]	General
C=C1C(=O)[C@]23C[C@H]1C[C@@H](O)[C@H]2[C@@]1(CCCC(C)(C)[C@H]1C=O)COC3=O [Trichorabdal A]	Helicobacter pylori
CC1=C(CO)C(=O)O[C@@H]([C@@H](C)[C@H]2CC[C@H]3[C@@H]4C[C@H]5O[C@]56[C@@H](O)C=CC(=O)[C@]6(C)[C@H]4CC[C@]23C)C1 [Withafarin A]	Bacteria, fungi
COc1ccc2c(c1OC)C(=O)O[C@@H]2[C@H]1c2cc3c(cc2CCN1C)OCO3 [hydrastine]	Bacteria, Giardia duodenals,; also recorded: trypanosomes; also recorded: Platmodia
O=C(O)c1ccc(O)cc1O [β-Resorcyclic acid]	Bacteria and viruses
Anthemic acid	M. tuberculosis, S. typhi-; also recorded: murium, S. aureus,; also recorded: holminths
Asiatocoside	M. leprae
Caffaio acids	Viruses, holminths
Catechin	General; also recorded: Shigella; also recorded: Vibrio; also recorded: S. mutans; also recorded: Viruses
Helanine	General
Hexemal	General
Pebatin	Bacteria

Tested on: oral carcinoma cell line (KB)
Conditions: features of caspase-3-mediated apoptosis

Compound	Cytotoxicity
CCCCCCCC(=O)CCc1ccc(O)c(OC)c1 [[6]-paradol]	dose-dependent cytotoxicity

Same assay, conditions: incubated for 48 h

Compound	Viable KB cells, % of untreated control
CCCCCCCC(=O)CCc1ccc(O)c(OC)c1 [[6]-paradol]	less than 50%

Tested on: mouse skin
Conditions: not given

Compound	Protection from tumor inducing agent
CCCCCCCC(=O)CCc1ccc(O)c(OC)c1 [[6]-paradol]	protected mouse skin from a tumor inducing agent

Tested on: human breast cancer xenografts
Conditions: mice

Compound	Growth and metastasis of xenografts
COc1cc(/C=C/C(=O)CC(=O)/C=C/c2ccc(O)c(OC)c2)ccc1O [curcumin]	reduce the growth and metastasis

Tested on: oral cancer cell line KB-1
Conditions: key protein for gap junction formation

Compound	Induction of connexin 43
CC(C)=CCC/C(C)=C/C=C/C(C)=C/C=C/C(C)=C/C=C/C=C(C)/C=C/C=C(C)/C=C/C=C(\C)CCC=C(C)C [lycopene]	specifically induced

Same assay, conditions: physiological lycopene concentrations

Compound	KB-1 cells, % of control cell numbers
CC(C)=CCC/C(C)=C/C=C/C(C)=C/C=C/C(C)=C/C=C/C=C(C)/C=C/C=C(C)/C=C/C=C(\C)CCC=C(C)C [lycopene]	approximately 10%

Tested on: breast cancer cell line MCF7
Conditions: not given

Compound	IGF-1 stimulated proliferation
CC(C)=CCC/C(C)=C/C=C/C(C)=C/C=C/C(C)=C/C=C/C=C(C)/C=C/C=C(C)/C=C/C=C(\C)CCC=C(C)C [lycopene]	blocked IGF-1 stimulated proliferation

Tested on: oral cancer
Conditions: not given

Compound	Apoptosis
O=C(/C=C/c1ccc(O)c(O)c1)O[C@@H]1C[C@](O)(C(=O)O)C[C@@H](O)[C@H]1O [CGA, chlorogenic acid]	induced caspase-3-dependent apoptosis

Tested on: transformed cells
Conditions: by activating apoptosis

Compound	Growth inhibition
epigallocatechin-3-gallate [EGCG]	induce growth inhibition

Tested on: normal cell
Conditions: not given

Compound	Normal cell growth
epigallocatechin-3-gallate [EGCG]	not affected

Tested on: oral squamous carcinoma cells
Conditions: not given

Compound	Apoptosis
epigallocatechin-3-gallate [EGCG]	induce apoptosis

Tested on: normal human epidermal keratinocytes
Conditions: not given

Compound	Survival
epigallocatechin-3-gallate [EGCG]	survive

Tested on: oral squamous cell carcinoma (OSCC) cells
Conditions: oral tumor cells

Compound	Selectivity of cytotoxicity
COc1ccc2c3c1O[C@H]1C(=O)C=C[C@H]4[C@@H](C2)N(C)CC[C@]314 [codeinone]	selectively higher in oral tumor cells

Same assay, conditions: targets the mitochondria

Compound	Apoptosis
COc1ccc2c3c1O[C@H]1C(=O)C=C[C@H]4[C@@H](C2)N(C)CC[C@]314 [codeinone]	caspase-3-dependent apoptosis
